According to patent publication US10052320B2, “Substituted quinoxalines as FGFR kinase inhibitors” (ASTEX THERAPEUTICS LIMITED, priority 2011, dated 2018):
Read-outs that look alike come from different tables or passages of the source.

Legend:
FGFR1 (h) = FGFR1 (h) (Homo sapiens, UniProt P11362); assay: FGFR1 (enzymatic assay), TR-FRET; assay type: biochemical; settings: read-out: FGFR 1 pIC50 (converted)
Experimental: (§1) In a final reaction volume of 30 μL, FGFR1 (h) (25 ng/ml) was incubated with 50 mM HEPES pH 7.5, 6 mM MnCl2, 1 mM DTT, 0.1 mM Na3VO4, 0.01% Triton-X-100, 500 nM Btn-Flt3 and 5 μM ATP in the presence of compound (1% DMSO final). […] Time-Resolved Fluorescence Resonance Energy Transfer (TR-FRET) signal (ex340 nm. Em 620 nm, em 655 nm) was measured afterwards and results are expressed in RFU (Relative Fluorescence Units).

FGFR2 (h) = FGFR2 (h) (Homo sapiens, UniProt P21802); assay: FGFR2 (enzymatic assay), TR-FRET; assay type: biochemical; settings: read-out: FGFR 2 pIC50 (converted)
Experimental: as §1, with “μL, FGFR2” for “μL, FGFR1”, “(h) (150” for “(h) (25”, “and 0.4” for “and 5”, “in” for “in RFU”

[1] = target: Ba/F3-FGFR1-transfected cells (Homo sapiens, UniProt P11362); assay: Ba/F3-FGFR1 (minus IL3) cellular proliferation assay, Alamar Blue; assay type: cell-based; settings: for BAF3-FGFR 1 (MIN IL3) 384 well pIC50: minus IL3, 384 well; for BAF3-FGFR 1 (MIN IL3) 96 well pIC50: minus IL3, 96 well
Experimental: (§2) Ba/F3-FGFR1 (Minus IL3 or Plus IL3) (Cellular Proliferation Assay)
(§3) Cells were put in an incubator at 37° C. and 5% CO2. After 24 hours, 10 μl of Alamar Blue solution (0.5 mM K3Fe(CN)6, 0.5 mM KaFe(CN)6, 0.15 mM Resazurin and 100 mM Phosphate Buffer) was added to the wells, incubated for 4 hours at 37° C. and 5% CO2 before RFU's (Relative Fluorescence Units) (ex. 540 nm., em. 590 nm.) were measured in a flurorescence plate reader. […]
(§4) In a 96 well plate, 180 μl cell culture medium (phenol red free RPMI-1640, 10% FBS, 2 mM L-Glutamine and 50 μg/ml Gentamycin) containing 10000 cells per well of Ba/F3-FGFR1-transfected cells were pipette and 20 μl of compound dilution in DMSO was added. Cells were put in an incubator at 37° C. and 5% CO2. After 24 hours, 40 μl of Alamar Blue solution (0.5 mM K3Fe(CN)6, 0.5 mM KaFe(CN)6, 0.15 mM Resazurin and 100 mM Phosphate Buffer) was added to the wells, incubated for 4 hours at 37° C. and 5% CO2 before RFU's (Relative Fluorescence Units) (ex. 540 nm., em. 590 nm.) were measured in a flurorescence plate reader.

[2] = system: Ba/F3-FGFR1-transfected cells in the presence of 10 ng/ml murine IL3; assay: Ba/F3-FGFR1 (plus IL3) cellular proliferation counterscreen, Alamar Blue; assay type: cell-based; settings: Mus musculus
Experimental: as §2
as §4, with “a 384” for “a 96”, “plate, 100 nl of compound dilution in DMSO was sprayed before adding 50” for “plate, 180”, “containing 20000” for “containing 10000”, “Ba/F3-FGFR1-transfected cells.” for “Ba/F3-FGFR1-transfected cells were pipette and 20 μl of compound dilution in DMSO was added.”, “hours, 10” for “hours, 40”
As a counterscreen the same experiment was performed in the presence of 10 ng/ml murine IL3.
as §4

[3] = target: Ba/F3-FGFR3-transfected cells (Homo sapiens, UniProt P22607); assay: Ba/F3-FGFR3 (minus IL3) cellular proliferation assay, Alamar Blue; assay type: cell-based; settings: for BAF3-FGFR 3 (MIN IL3) 96 well pIC50: minus IL3, 96 well; for BAF3-FGFR 3 (MIN IL3) 384 well pIC50: minus IL3, 384 well
Experimental: Ba/F3-FGFR3 (Minus IL3 or Plus IL3) (Cellular Proliferation Assay)
as §3
as §4, with “Ba/F3-FGFR3-transfected” for “Ba/F3-FGFR1-transfected”

[4] = target: Ba/F3-FGFR4-transfected cells (Homo sapiens, UniProt P22455); assay: Ba/F3-FGFR4 cellular proliferation assay, Alamar Blue; assay type: cell-based
Experimental: Ba/F3-FGFR4 (Cellular Proliferation Assay)
as §4, with “a 384” for “a 96”, “plate, 100 nl of compound dilution in DMSO was sprayed before adding 50” for “plate, 180”, “containing 20000” for “containing 10000”, “of Ba/F3-FGFR4-transfected cells.” for “of Ba/F3-FGFR1-transfected cells were pipette and 20 μl of compound dilution in DMSO was added.”, “hours, 10” for “hours, 40”

[5] = plus IL3, 384 well, read-out: BAF3-FGFR 1 (PLUS IL3) 384 well pIC50 (converted)
[6] = plus IL3, 96 well, read-out: BAF3-FGFR 1 (PLUS IL3) 96 well pIC50 (converted)

Chain of FGFR2 (h) (P21802 22-821): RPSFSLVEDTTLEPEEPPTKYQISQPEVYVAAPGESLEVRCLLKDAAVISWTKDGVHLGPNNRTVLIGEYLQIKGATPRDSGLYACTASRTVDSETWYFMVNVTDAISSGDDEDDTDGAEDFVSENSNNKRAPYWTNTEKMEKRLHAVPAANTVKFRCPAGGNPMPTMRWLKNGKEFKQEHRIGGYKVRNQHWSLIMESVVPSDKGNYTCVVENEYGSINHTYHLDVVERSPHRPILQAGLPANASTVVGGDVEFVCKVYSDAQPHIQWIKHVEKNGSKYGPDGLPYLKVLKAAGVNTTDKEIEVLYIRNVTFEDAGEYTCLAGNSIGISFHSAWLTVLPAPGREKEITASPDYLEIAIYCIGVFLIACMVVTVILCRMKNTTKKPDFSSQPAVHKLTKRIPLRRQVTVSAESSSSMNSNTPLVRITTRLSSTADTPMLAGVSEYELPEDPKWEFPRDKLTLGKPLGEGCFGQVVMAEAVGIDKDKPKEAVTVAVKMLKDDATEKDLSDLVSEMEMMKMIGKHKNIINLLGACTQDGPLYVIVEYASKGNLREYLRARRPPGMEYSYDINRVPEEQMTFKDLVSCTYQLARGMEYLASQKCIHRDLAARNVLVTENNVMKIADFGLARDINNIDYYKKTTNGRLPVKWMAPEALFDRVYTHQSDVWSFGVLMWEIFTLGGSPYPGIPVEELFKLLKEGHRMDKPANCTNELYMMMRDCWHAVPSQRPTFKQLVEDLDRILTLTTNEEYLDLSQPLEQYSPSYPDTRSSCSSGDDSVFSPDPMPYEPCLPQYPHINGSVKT
Chain of FGFR1 (h) (P11362 22-822): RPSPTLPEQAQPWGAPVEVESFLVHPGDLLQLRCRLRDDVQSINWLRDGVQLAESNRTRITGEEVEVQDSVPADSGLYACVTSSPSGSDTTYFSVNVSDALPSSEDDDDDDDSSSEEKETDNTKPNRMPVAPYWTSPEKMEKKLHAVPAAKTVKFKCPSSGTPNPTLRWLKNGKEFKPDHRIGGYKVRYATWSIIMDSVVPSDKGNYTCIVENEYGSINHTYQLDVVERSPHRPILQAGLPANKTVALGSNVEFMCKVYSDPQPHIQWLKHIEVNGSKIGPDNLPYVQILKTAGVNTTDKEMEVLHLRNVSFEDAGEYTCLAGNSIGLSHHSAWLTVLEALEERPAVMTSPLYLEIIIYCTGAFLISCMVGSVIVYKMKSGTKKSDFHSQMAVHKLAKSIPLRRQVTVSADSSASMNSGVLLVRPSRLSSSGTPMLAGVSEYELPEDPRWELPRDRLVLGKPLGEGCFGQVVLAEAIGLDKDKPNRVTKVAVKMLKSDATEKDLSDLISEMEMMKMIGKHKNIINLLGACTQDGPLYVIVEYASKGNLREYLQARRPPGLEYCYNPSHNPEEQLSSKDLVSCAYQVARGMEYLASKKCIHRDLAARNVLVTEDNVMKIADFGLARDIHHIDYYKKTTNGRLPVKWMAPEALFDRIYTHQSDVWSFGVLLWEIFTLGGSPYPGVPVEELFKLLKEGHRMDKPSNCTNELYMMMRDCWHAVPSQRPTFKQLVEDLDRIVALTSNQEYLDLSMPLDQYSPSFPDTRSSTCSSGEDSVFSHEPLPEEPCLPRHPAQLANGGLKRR
Chain of Ba/F3-FGFR3-transfected cells (P22607 whole entry, change not shown): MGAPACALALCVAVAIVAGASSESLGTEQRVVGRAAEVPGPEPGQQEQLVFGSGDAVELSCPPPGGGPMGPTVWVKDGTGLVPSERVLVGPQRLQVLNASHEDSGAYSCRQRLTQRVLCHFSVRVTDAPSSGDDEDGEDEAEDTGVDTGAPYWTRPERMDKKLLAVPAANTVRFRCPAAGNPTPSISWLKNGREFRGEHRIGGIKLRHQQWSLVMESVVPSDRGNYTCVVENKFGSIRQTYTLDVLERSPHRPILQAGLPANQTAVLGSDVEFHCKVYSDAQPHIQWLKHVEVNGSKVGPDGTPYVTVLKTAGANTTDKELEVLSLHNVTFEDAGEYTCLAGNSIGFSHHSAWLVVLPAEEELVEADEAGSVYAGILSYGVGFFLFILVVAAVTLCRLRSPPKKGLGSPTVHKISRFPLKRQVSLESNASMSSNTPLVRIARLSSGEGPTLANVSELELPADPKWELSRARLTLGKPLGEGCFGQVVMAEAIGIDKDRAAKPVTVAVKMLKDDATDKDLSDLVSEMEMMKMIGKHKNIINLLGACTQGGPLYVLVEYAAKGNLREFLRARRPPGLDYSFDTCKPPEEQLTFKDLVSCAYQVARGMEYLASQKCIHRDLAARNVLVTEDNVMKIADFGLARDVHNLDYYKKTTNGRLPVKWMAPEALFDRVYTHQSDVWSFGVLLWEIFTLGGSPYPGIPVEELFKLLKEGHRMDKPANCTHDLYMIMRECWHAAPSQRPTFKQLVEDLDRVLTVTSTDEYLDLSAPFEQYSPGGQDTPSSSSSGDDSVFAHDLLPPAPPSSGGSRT
Chain of Ba/F3-FGFR4-transfected cells (P22455 whole entry, change not shown): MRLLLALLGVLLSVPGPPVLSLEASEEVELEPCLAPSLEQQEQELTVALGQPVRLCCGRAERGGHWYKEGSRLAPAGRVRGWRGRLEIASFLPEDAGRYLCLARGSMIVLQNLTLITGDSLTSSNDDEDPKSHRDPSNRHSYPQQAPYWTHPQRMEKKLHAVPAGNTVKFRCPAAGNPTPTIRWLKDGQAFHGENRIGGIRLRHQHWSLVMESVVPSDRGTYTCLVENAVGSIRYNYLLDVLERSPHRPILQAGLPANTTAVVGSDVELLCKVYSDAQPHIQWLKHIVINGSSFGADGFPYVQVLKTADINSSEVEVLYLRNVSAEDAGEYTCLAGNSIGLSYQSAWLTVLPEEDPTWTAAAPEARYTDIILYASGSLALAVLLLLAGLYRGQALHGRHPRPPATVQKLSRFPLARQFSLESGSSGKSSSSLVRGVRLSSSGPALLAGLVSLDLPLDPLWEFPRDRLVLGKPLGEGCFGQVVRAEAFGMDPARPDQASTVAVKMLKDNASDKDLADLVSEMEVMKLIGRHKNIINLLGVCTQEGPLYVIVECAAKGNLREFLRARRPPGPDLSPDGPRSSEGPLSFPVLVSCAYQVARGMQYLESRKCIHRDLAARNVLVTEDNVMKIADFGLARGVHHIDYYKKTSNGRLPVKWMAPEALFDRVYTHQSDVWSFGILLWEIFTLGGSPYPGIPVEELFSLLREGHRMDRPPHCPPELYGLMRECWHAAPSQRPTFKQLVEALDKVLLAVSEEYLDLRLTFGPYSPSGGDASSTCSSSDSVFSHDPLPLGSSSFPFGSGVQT
Chain of Ba/F3-FGFR1-transfected cells (P11362 whole entry, change not shown): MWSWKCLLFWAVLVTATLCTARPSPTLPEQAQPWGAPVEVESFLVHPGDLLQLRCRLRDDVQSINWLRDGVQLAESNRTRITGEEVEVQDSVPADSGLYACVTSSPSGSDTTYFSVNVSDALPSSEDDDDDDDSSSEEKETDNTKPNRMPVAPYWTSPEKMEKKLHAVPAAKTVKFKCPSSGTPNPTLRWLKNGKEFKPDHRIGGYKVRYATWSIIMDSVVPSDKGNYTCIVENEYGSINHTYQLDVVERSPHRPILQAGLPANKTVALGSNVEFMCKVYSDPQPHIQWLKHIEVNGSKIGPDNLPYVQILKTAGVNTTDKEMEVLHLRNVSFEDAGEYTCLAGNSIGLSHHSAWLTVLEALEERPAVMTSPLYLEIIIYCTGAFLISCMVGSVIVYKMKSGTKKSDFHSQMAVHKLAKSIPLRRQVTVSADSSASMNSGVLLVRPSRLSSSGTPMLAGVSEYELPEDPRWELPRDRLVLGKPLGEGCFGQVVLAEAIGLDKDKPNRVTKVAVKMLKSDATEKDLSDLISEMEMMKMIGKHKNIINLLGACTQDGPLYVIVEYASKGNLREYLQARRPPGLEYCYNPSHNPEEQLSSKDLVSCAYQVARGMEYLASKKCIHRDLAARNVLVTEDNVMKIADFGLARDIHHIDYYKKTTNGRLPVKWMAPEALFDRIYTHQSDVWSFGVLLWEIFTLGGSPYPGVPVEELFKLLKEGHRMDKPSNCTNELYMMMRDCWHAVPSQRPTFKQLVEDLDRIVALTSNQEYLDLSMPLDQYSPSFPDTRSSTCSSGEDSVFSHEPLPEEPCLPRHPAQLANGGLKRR

| SMILES | IC50 (FGFR1 (h)) | IC50 (FGFR2 (h)) | BAF3-FGFR 1 (MIN IL3) 384 well pIC50 [1] | IC50 [2, 5] | BAF3-FGFR 3 (MIN IL3) 96 well pIC50 [3] | BAF3-FGFR 3 (MIN IL3) 384 well pIC50 [3] | BAF3-FGFR4 pIC50 ([4]; 384 well) | BAF3-FGFR4 pIC50 [4] | BAF3-FGFR 1 (MIN IL3) 96 well pIC50 [1] | IC50 [2, 6] |
| --- | --- | --- | --- | --- | --- | --- | --- | --- | --- | --- |
| COc1cc(OC)cc(N(CC2CC2)c2ccc3ncc(C#Cc4cncn4C)nc3c2)c1 [Compound 22] | 28.2 nM | 95.5 nM | <5 | > 10000 nM | 5.04 | <5.52 | <5 |  |  |  |
| COc1cc(OC)cc(N(CCCNCC(F)(F)F)c2ccc3ncc(-c4cnc(OC)nc4)nc3c2)c1 [Compound 26] | 112 nM | 138 nM | 5.13 | > 10000 nM |  | <5 |  | ~5.1 |  |  |
| COc1cc(OC)cc(N(CC2CC2)c2ccc3ncc(C(=O)Nc4cncn4C)nc3c2)c1 [Compound 27] | 269 nM | ~4170 nM | <5 | > 10000 nM | <5 | <5 |  | <5 | <5 | > 10000 nM |
| COc1cc(OC)cc(N(CC2CC2)c2ccc3ncc(NC(=O)c4ccc(F)cc4)nc3c2)c1 [Compound 28] | 2400 nM | 6170 nM | <5 | > 10000 nM | <5 | <5 |  | <5 |  | > 10000 nM |
| CO/N=C(\C)c1cnc2ccc(N(CCO)c3cc(OC)cc(OC)c3)cc2n1 [Compound 29] | 55 nM | 115 nM | 6.41 | > 10000 nM |  | 5.5 |  | <5 |  |  |
| COc1cc(OC)cc(N(CCN2CCOCC2)c2ccc3ncc(-c4ccc(NC(=O)N5CCOCC5)nc4)nc3c2)c1 [Compound 35] | 12 nM | 26.3 nM | 6.36 | > 10000 nM |  | 6.19 |  | 6.0 |  |  |
| COc1cc(OC)cc(N(CC2CC2)c2ccc3ncc(-c4ccnc(N5CCN(C)CC5)c4)nc3c2)c1 [Compound 37] | 30.2 nM | 95.5 nM | 5.16 | > 10000 nM | 5.77 | ~5.26 | 5.3 |  | 5.4 | 7590 nM |
| COc1cc(OC)cc(N(CCO)c2ccc3ncc(-n4cnc(CO)c4)nc3c2)c1 [Compound 38] | 15.1 nM | 25.7 nM | 6.31 | > 10000 nM |  | 6.23 |  | 5.8 |  |  |
| COc1cc(OC)cc(N(CC2CC2)c2ccc3ncc(-c4c[nH]cn4)nc3c2)c1 [Compound 39] | 31.6 nM | 81.3 nM | <5 | > 10000 nM | 5.51 | 5.08 |  | <5 |  |  |
| COc1cc(OC)cc(N(CCCO)c2ccc3ncc(-c4ccnc(C(=O)N5CCOCC5)c4)nc3c2)c1 [Compound 43] | 15.8 nM | 13.2 nM | 6.28 | > 10000 nM |  | 6.25 |  | 6.0 |  |  |
| COc1cc(OC)cc(N(CCCNCC(=O)O)c2ccc3ncc(-c4ccnc(C(=O)NCCCCN)c4)nc3c2)c1 [Compound 44] | 17.4 nM | 11 nM | <5 | > 10000 nM |  | <5 |  | <5.35 |  |  |
| COc1cc(OC)cc(N(CC2CC2)c2ccc3ncc(N4CCN(CCO)CC4)nc3c2)c1 [Compound 49] | 316 nM | 398 nM | <5 | > 10000 nM | 5.5 | <5 |  | <5 |  |  |
| COc1cc(OC)cc(N(CCN2CCNCC2)c2ccc3ncc(-c4ccc(N)nc4)nc3c2)c1 [Compound 59] | 3.63 nM | 4.07 nM | 6.22 | > 10000 nM |  | 5.9 |  | 6.1 |  |  |
| COc1cc(OC)cc(N(CC2CC2)c2ccc3ncc(N4CCOCC4)nc3c2)c1 [Compound 63] | 537 nM | 741 nM | <5 | > 10000 nM | <5 | <5 | <5 |  |  |  |
| COc1cc(OC)cc(N(CC2CC2)c2ccc3ncc(N4CCN(C)CC4)nc3c2)c1 [Compound 64] | 437 nM | 331 nM | <5 | > 10000 nM | 5.02 | <5 | <5 |  |  |  |
| COc1cc(OC)cc(N(CCNC(C)C)c2ccc3ncc(N4CCC(CN)CC4)nc3c2)c1 [Compound 67] | 3.31 nM | 6.31 nM | 6.23 | 8510 nM |  | 5.83 |  | 6.2 |  |  |
| COc1cc(OC)cc(N(CCN2CCN(C(C)=O)CC2)c2ccc3ncc(-c4ccc(N)nc4)nc3c2)c1 [Compound 68] | 25.7 nM | 33.9 nM | 6.13 | > 10000 nM |  | ~6.15 |  | 5.7 |  |  |
| COc1cc(OC)cc(N(CCNC(C)C)c2ccc3ncc(-n4cnc(CO)c4)nc3c2)c1 [Compound 77] | 2.24 nM | 9.12 nM | 7.12 | > 10000 nM |  | 7.12 |  | 6.9 |  |  |
